Laboratory results as given in patent US4843085A, “Pyridine derivatives, process for production thereof and pharmaceutical compositions useful as anti-arhytmics” (Yamanouchi Pharmaceutical Co., Ltd., priority 1987, dated 1989).
Counter-ions that a name gives are not always drawn.

The compounds below were run on corneal reflex responses (assay: Local anesthetic activity (corneal reflex responses)). Settings: instilled into the cornea, guinea-pigs.
Type: in vivo, guinea-pigs (male Hartley strain)
Description: Solutions of the compounds were instilled into the cornea, and the corneal reflex responses were determined.

Point of comparison: COC(=O)c1c(C)nc(C)c(C(=O)OC)c1-c1cc([N+](=O)[O-])ccc1OCCCCNC[C@@H](O)COc1ccccc1 [Example 2, Dimethyl 4-[2-[4-[[(R)-2-hydroxy-3-phenoxypropyl]amino]butoxy]-5-nitrophenyl]-2,6-dimethylpyridine-3,5-dicarboxylate oxalate], “ED50 (concentration required to inhibit corneal reflex responses by 50%)” value 0.32%. Against it:
- COC(=O)c1c(C)nc(C)c(C(=O)OC)c1-c1cc([N+](=O)[O-])ccc1OCCCCNC[C@H](O)COc1ccccc1.O=C(O)C(=O)O.O=C(O)C(=O)O [Example 1, Dimethyl 4-[2-[4-[[(S)-2-hydroxy-3-phenoxypropyl]amino]butoxy]-5-nitrophenyl]-2,6-dimethylpyridine-3,5dicarboxylate dioxalate] — higher, 0.49%
- CCN(CC)CC(=O)Nc1c(C)cccc1C [Lidocaine, reference compound] — higher, 0.82%
